Experimental data reported in US11072741B2, “Optically anisotropic layer, method for producing the optically anisotropic layer, a laminate, polarizing plate, display device, liquid crystal compound, method for producing the liquid crystal compound, and carboxylic acid compound” (FUJIFILM Corporation, priority 2014, dated 2021).

What was measured:
[1] = Evaluation of phase transition temperature by polarizing microscope; type: physicochemical; conditions: for Phase Transition Temperature Evaluation of Decrease: versus comparative compound with the same Ar and side chain portion of Formula (Ia)
From the text: Here, the temperature at which the compound transitions from the smectic phase to the nematic phase may be easily measured by observation of the composition employing polarized light microscopy. For example, in the nematic phase, a schlieren texture specific to the nematic phase is observed, while the texture transitions to a focal conic fan texture in a smectic A phase. Therefore, the phase transition temperature can be measured by observing the textures with a polarizing microscope while increasing or decreasing the temperature.
The phase transition temperatures of the synthesized liquid crystal compounds of the Examples and Comparative Examples were observed using a polarizing microscope to evaluate the degrees of temperature decrease. Specifically, the compounds of the Examples were compared to the compounds of the Comparative Examples, which have different structures for the side chain portions thereof. That is, the phase transition temperature of a compound of a Comparative Example having Ar (the aromatic ring at the center of General Formula 1) in common with the Examples and a side chain portion represented by Formula (Ia) below was used as a reference. Evaluations of A through C were assigned according to the degree of temperature decrease from the reference phase transition temperature.
(§1) For example, compound (I-1) and (I-2) were compared to Comparative Compound (Ia-1), and Compound (III-3) was compared to Comparative Compound (IIIa-3). The evaluation was carried out based on the following criteria.
A: decrease in melting point or Sm-N (smectic-nematic) transition temperature is 20° C. or greater
B: decrease in melting point or Sm-N (smectic-nematic) transition temperature is 5° C. or greater and less than 20° C.
C: decrease in melting point or Sm-N (smectic-nematic) transition temperature is less than 5° C.
With respect to the phase transition temperature, the numerical value in parentheses represents the numerical value during temperature decrease, and other numerical values represent a numerical value during temperature increase.

[2] = Measurement and evaluation of solubility in MEK and CPN; type: physicochemical; conditions: for Solubility CPN wt %: cyclopentanone; for Solubility CPN wt % / Solubility MEK wt %: room temperature, visual observation, 5 wt % increments; for Solubility MEK wt %: methyl ethyl ketone; for Solubility Evaluation: versus comparative compound with the same Ar and side chain portion of Formula (Ia)
Description: Solubility measurements of the synthesized liquid crystal compounds were conducted by the following method. 50 mg of each compound was weighted into a 1.5 mL sample bottle, and solvent was added until the solid component became 40 wt % (75 mg). The solubility was determined to be 40 wt % if clear under visual observation after shaking well manually at room temperature. If undissolved residue was present, solvent was added such that the solid component became 35 wt % (+18 mg). The solubility was determined to be 35 wt % if clear under visual observation after shaking well manually at room temperature. If undissolved residue was present, solvent was added such that the solid component became 30 wt %. Similar operations were performed in increments of 5 wt %, and repeated until the solid component became 5 wt %. If undissolved residue was present, the solubility was determined to be less than 5 wt % (<5 wt %), and measurements were completed. MEK (methyl ethyl ketone) and CPN (cyclopentanone) were utilized as solvents for measuring solubility.
The measured values of solubility were evaluated. The evaluations were conducted by using solubility of a compound of a Comparative Example having Ar (the aromatic ring at the center of General Formula 1) in common with the Examples and a side chain portion represented by Formula (Ia) as a reference, in a manner similar to that in the evaluation of the phase transition temperature. Evaluations of A through C were assigned according to the degree of improvement in solubility from the reference solubility.
as §1
A: solubility improved twofold or greater in plural solvents or a single solvent
B: solubility was the same or improved up to twofold in plural solvents or a single solvent
C: no improvement in solubility in plural solvents or a single solvent

[3] = value in parentheses: during temperature decrease

Row | Structure (SMILES) | TNi(° C.) Isotropic Phase Transition Point ([1]; during temperature increase) [°C] | Tsm—N(° C.) Sm—N Transition Point ([1]; during temperature increase) [°C] | Phase Transition Temperature Evaluation of Decrease [1] | Solubility CPN wt % [2] [wt %] | Solubility MEK wt % [2] [wt %] | Solubility Evaluation [2] | melting point [°C] | TNi(° C.) Isotropic Phase Transition Point [1, 3] | Tsm—N(° C.) Sm—N Transition Point [1, 3]
1 | C=CC(=O)OCCOC(=O)CCC(=O)OCCc1ccc(OC(=O)[C@H]2CC[C@H](C(=O)Oc3ccc(OC(=O)[C@H]4CC[C@H](C(=O)Oc5ccc(CCOC(=O)CCC(=O)OCCOC(=O)C=C)cc5)CC4)c4c3SC(=C(C#N)C#N)S4)CC2)cc1 [Compound I-1] | 172 | 140 | A (decrease in melting point or Sm-N (smectic-nematic) transition temperature is 20 °C or greater) | 40 | 20 | A (solubility improved twofold or greater in plural solvents or a single solvent) | 108 |  | 
2 | C=C(C)C(=O)OCCOC(=O)CCC(=O)OCCc1ccc(OC(=O)[C@H]2CC[C@H](C(=O)Oc3ccc(OC(=O)[C@H]4CC[C@H](C(=O)Oc5ccc(CCOC(=O)CCC(=O)OCCOC(=O)C(=C)C)cc5)CC4)c4c3SC(=C(C#N)C#N)S4)CC2)cc1 [Compound I-2] | 168 | 130 | A (decrease in melting point or Sm-N (smectic-nematic) transition temperature is 20 °C or greater) | 20 | 10 | A (solubility improved twofold or greater in plural solvents or a single solvent) | 105 |  | 
3 | C=CC(=O)OCCCCOC(=O)CCC(=O)OCCc1ccc(OC(=O)[C@H]2CC[C@H](C(=O)Oc3ccc(OC(=O)[C@H]4CC[C@H](C(=O)Oc5ccc(CCOC(=O)CCC(=O)OCCCCOC(=O)C=C)cc5)CC4)c4c3SC(=C(C#N)C#N)S4)CC2)cc1 [Compound I-3] | 156 | 126 | A (decrease in melting point or Sm-N (smectic-nematic) transition temperature is 20 °C or greater) | 25 | 15 | A (solubility improved twofold or greater in plural solvents or a single solvent) | 107 |  | 
4 | C=CC(=O)OCCOCCOC(=O)CCC(=O)OCCc1ccc(OC(=O)[C@H]2CC[C@H](C(=O)Oc3ccc(OC(=O)[C@H]4CC[C@H](C(=O)Oc5ccc(CCOC(=O)CCC(=O)OCCOCCOC(=O)C=C)cc5)CC4)c4c3SC(=C(C#N)C#N)S4)CC2)cc1 [Compound I-5] | 172 | 146 | A (decrease in melting point or Sm-N (smectic-nematic) transition temperature is 20 °C or greater) | 40 | 15 | A (solubility improved twofold or greater in plural solvents or a single solvent) | 110 |  | 
5 | C=CC(=O)OCCOC(=O)COCC(=O)OCCc1ccc(OC(=O)[C@H]2CC[C@H](C(=O)Oc3ccc(OC(=O)[C@H]4CC[C@H](C(=O)Oc5ccc(CCOC(=O)COCC(=O)OCCOC(=O)C=C)cc5)CC4)c4c3SC(=C(C#N)C#N)S4)CC2)cc1 [Compound I-6] | 172 | 146 | A (decrease in melting point or Sm-N (smectic-nematic) transition temperature is 20 °C or greater) | 20 | 10 | A (solubility improved twofold or greater in plural solvents or a single solvent) | 110 |  | 
6 | C=C(C)C(=O)OCCOCCNC(=O)OCCc1ccc(OC(=O)[C@H]2CC[C@H](C(=O)Oc3ccc(OC(=O)[C@H]4CC[C@H](C(=O)Oc5ccc(CCOC(=O)NCCOCCOC(=O)C(=C)C)cc5)CC4)c4c3SC(=C(C#N)C#N)S4)CC2)cc1 [Compound I-7] | 195 | 145 | B (decrease in melting point or Sm-N (smectic-nematic) transition temperature is 5 °C or greater and less than 20° C.) | 25 | 10 | A (solubility improved twofold or greater in plural solvents or a single solvent) | 130 |  | 
7 | C=C(C)C(=O)OCCNC(=O)OCCc1ccc(OC(=O)[C@H]2CC[C@H](C(=O)Oc3ccc(OC(=O)[C@H]4CC[C@H](C(=O)Oc5ccc(CCOC(=O)NCCOC(=O)C(=C)C)cc5)CC4)c4c3SC(=C(C#N)C#N)S4)CC2)cc1 [Compound I-9] | 220 | 158 | B (decrease in melting point or Sm-N (smectic-nematic) transition temperature is 5 °C or greater and less than 20° C.) | 20 | 5 | B (solubility was the same or improved up to twofold in plural solvents or a single solvent) | 130 |  | 
8 | C=CC(=O)OCCOC(=O)CCC(=O)OCCc1ccc(OC(=O)[C@H]2CC[C@H](C(=O)Oc3ccc(OC(=O)[C@H]4CC[C@H](C(=O)Oc5ccc(CCOC(=O)CCC(=O)OCCOC(=O)C=C)cc5)CC4)c4c3SC(=C(C#N)C(=O)OCCC(C)(C)O)S4)CC2)cc1 [III-7] |  |  | A (decrease in melting point or Sm-N (smectic-nematic) transition temperature is 20 °C or greater) | 40 | 40 | A (solubility improved twofold or greater in plural solvents or a single solvent) |  | (50) ° C. | 
9 | C=CC(=O)OCCOC(=O)CCC(=O)OCCc1ccc(OC(=O)[C@H]2CC[C@H](C(=O)Oc3cc(CC)c(OC(=O)[C@H]4CC[C@H](C(=O)Oc5ccc(CCOC(=O)CCC(=O)OCCOC(=O)C=C)cc5)CC4)c4c3SC(=C(C#N)C#N)S4)CC2)cc1 [IV-2] |  |  |  | 40 | 40 |  |  | (113) ° C. | (61) ° C.
10 | C=CC(=O)OCCOC(=O)CCC(=O)OCCc1ccc(OC(=O)[C@H]2CC[C@H](C(=O)Oc3cc(C(C)(C)C)c(OC(=O)[C@H]4CC[C@H](C(=O)Oc5ccc(CCOC(=O)CCC(=O)OCCOC(=O)C=C)cc5)CC4)c4c3SC(=C(C#N)C#N)S4)CC2)cc1 [IV-6] |  |  | A (decrease in melting point or Sm-N (smectic-nematic) transition temperature is 20 °C or greater) | 40 | 40 | A (solubility improved twofold or greater in plural solvents or a single solvent) |  | (58) ° C. | 
11 | C=CC(=O)OCCCCCCOc1ccc(OC(=O)[C@H]2CC[C@H](C(=O)Oc3cc(C(C)(C)C)c(OC(=O)[C@H]4CC[C@H](C(=O)Oc5ccc(OCCCCCCOC(=O)C=C)cc5)CC4)c4c3SC(=C(C#N)C#N)S4)CC2)cc1 [IVa-6, reference compound] |  |  |  | 10 | <5 |  |  | (167) ° C. | 
